The record followed here is PubChem BioAssay AID1324 (NMMLSC, 2008).

The source made the active and inactive calls. The rule behind the calls is not given here.

The first assay deals with glutathione S-transferase (GST-GSH binding). The assay is described as follows: GST–glutathione interaction disruption – biochemical, multiplex beads, flow cytometry, HPSMTB buffer, profiling panel (AID 1324).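 Note: glutathione beads loaded with GST-green fluorescent protein and no fluorescent Bim peptide.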 The settings on record: multiplex bead flow cytometry, MCF.
For the molecule `COCCCn1c(N)c(C(=O)Nc2sc3c(c2C(=O)OC)CCCC3)c2nc3ccccc3nc21`, the concentration giving a half-maximal response (EC50) (as a rule, the concentration at which the effect is half-maximal) is 2550 nM.
Consider `CCOC(=O)c1ccc(Nc2nc(C(=O)OCC)nc3ccccc23)cc1`, for which the EC50 was 2380 nM.
In the case of `CCOCCCNc1nc(=S)[nH]c2cc(OC)c(OC)cc12`, the EC50 entry is “inactive”.
Regarding `COc1cc2[nH]c(=S)nc(NCCc3ccc(S(N)(=O)=O)cc3)c2cc1OC`, the EC50 is 3630 nM.

The same assay, now with this note: multiplex bead flow cytometry, MCF, hits give high values, concentration not given here.
As to `O=C(Nc1ccccc1N1CCOCC1)c1cccs1`, the percent span inhibition result was “inactive”.
For `Cc1cc(N2CCN(C)CC2)nc2ccc(NC(=S)N3CCN(c4ccc(F)cc4)CC3)cc12`, the percent span inhibition entry was “inactive”.
With `O=C(C1=NN[C@@H]2C(=O)N(c3cccc(F)c3)C(=O)[C@H]12)c1ccc2ccccc2n1`, the percent span inhibition result was “inactive”.
On to `CC1Cc2ccccc2N1C(=O)c1ccc(N2CCCC2)c([N+](=O)[O-])c1` (configuration not stated), for which the percent span inhibition entry is “inactive”.
Turning to `Cc1ccc2c(c1)c(C)c(C)n2CC(O)Cn1nc(C)c(Br)c1C` (configuration not stated), the percent span inhibition entry is “inactive”.
For the molecule `Cc1ccc(-c2cc(C(=O)Nc3cc(C(=O)O)ccc3C)c3ccccc3n2)cc1`, the percent span inhibition result is “inactive”.
Consider `Cc1ccc(NC(=O)CC2S/C(=N/N=C/c3c[nH]c4ccccc34)NC2=O)cc1` (configuration not stated), for which the percent span inhibition entry was “inactive”.
Regarding `c1ccc(-c2nc(N3CCCCCC3)c3ccccc3n2)nc1`, the percent span inhibition result was “inactive”.
`CN(Cc1ccccc1)C(=O)c1[nH]cnc1C(=O)N[C@@H](CCCCNC(=O)OC(C)(C)C)C(=O)OC(C)(C)C`: the percent span inhibition entry is “inactive”.
For the molecule `COc1ccc(CCNC(=O)c2cc(-c3ccccn3)nc3c(Cl)cccc23)cc1OC`, the percent span inhibition entry is “inactive”.
Regarding `CCOC(=O)c1nc(Nc2ccc(Nc3ccccc3)cc2)c2ccccc2n1`, the percent span inhibition result was “inactive”.
`O=C(C[n+]1ccc(-c2nnc3n2CCC3)cc1)c1ccc(Cl)cc1`: the percent span inhibition result was “inactive”.
Turning to `COc1ccc(OC)c(Nc2ccc(C(=O)O)cc2[N+](=O)[O-])c1`, the percent span inhibition entry was “inactive”.
Turning to `CCOC(=O)CCCNC(=O)c1cncc(O)c1`, the percent span inhibition entry is “inactive”.
Consider `CNC(=O)/C(C#N)=C/c1c(N(Cc2ccccc2)Cc2ccccc2)nc2c(C)cccn2c1=O`, for which the percent span inhibition entry is “inactive”.
As to `CCOC(=O)c1cccc(Nc2ncnc3ccccc23)c1`, the percent span inhibition result is “inactive”.
For the molecule `CCOc1cc(S(=O)(=O)N2CCCCC2)ccc1F`, the percent span inhibition result is “inactive”.
Still for that read-out and setting: in the case of `COc1cc(CNc2ccc(N3CCCC3)cc2)cc(Cl)c1OC` it was “inactive”.
On the same count and under the same terms, in the case of `Cc1ccc(C)n1-c1ccc(N2CCOCC2)cc1` it was “inactive”; in that of `COc1ccc(-n2c(SCC(=O)Nc3ccc(C(=O)O)cc3)nnc2-c2cccs2)cc1`, “inactive”.
Still for that read-out and setting: in the case of `CCOCCOc1nc2c(c(=O)n(C)c(=O)n2C)n1CCc1ccccc1` it was “inactive”; in that of `COc1ccc(-n2c(NC(=O)c3ccco3)c(C#N)c3nc4ccccc4nc32)cc1`, “inactive”; in that of `O=C(CCc1ccccc1)N1CCN(c2ccccn2)CC1`, “inactive”.
In the case of `CN=C(NC1CCCCC1)c1ccc(Cl)cc1`, the percent span inhibition result is “inactive”.
For the molecule `CCOc1ccc2nc(SCC(=O)N3c4ccccc4Sc4ccccc43)c(C#N)cc2c1`, the percent span inhibition entry is “inactive”.
`Cn1cc(CN2C[C@]3(C)C[C@H]2CC(C)(C)C3)c(-c2ccc3c(c2)OCCO3)n1`: the percent span inhibition entry was “inactive”.
For the molecule `COc1cccc(/C=N/Nc2nn3cnnc3c3ccccc23)c1O`, the percent span inhibition result is “inactive”.
Same read-out and setting: in the case of `COc1ccc(CC(=O)Nc2ccc3nc(C)sc3c2)cc1OC` it was “inactive”.
For `COc1cccc(/C=N/NC(=O)c2cc3cc([N+](=O)[O-])ccc3s2)c1O`, the percent span inhibition result is “inactive”.
As to `CN1CCS/C1=C/C=C1/SC(=S)N(Cc2ccccc2)C1=O`, the percent span inhibition entry is “inactive”.
As to `COc1cc(/C=C2/NC(=O)N(Cc3ccccc3F)C2=O)ccc1O`, the percent span inhibition result was “inactive”.
For `COc1cc(/C=N/Nc2nc3c(c(=O)n(C)c(=O)n3C)n2Cc2ccccc2)ccc1OC(=O)c1ccco1`, the percent span inhibition result is “inactive”.
On the same count and under the same terms, in the case of `CCOC(=O)CSC1=NC(=O)/C(=C/c2ccc(OC)cc2)S1` it was “inactive”.
Consider `CNC(=O)CC1C(=O)N(Cc2ccccc2)C(=S)N1NC(=O)c1cccc(F)c1` (configuration not stated), for which the percent span inhibition result was “inactive”.
`O=C(COCC(=O)NCc1ccccc1)NCc1ccccc1`: the percent span inhibition entry was “inactive”.
For the molecule `Cc1cccc(-n2c(O)c(/C=N/N3CCOCC3)c(=O)[nH]c2=S)c1`, the percent span inhibition entry is “inactive”.
For the molecule `O=C(Nc1nccs1)c1ccc(COc2ccc(F)cc2)o1`, the percent span inhibition result is “inactive”.
With `Nc1ccc(N2CCN(CCCCN3C(=O)C4CCCN4C3=O)CC2)cc1` (configuration not stated), the percent span inhibition result was “inactive”.
Take `C(=C\c1ccccc1)/CSc1nnc(-c2ccccn2)n1Cc1ccco1`: the percent span inhibition result is “inactive”.
Turning to `Cc1cc(Cl)c(S(=O)(=O)NCC2CCCO2)cc1OCC(N)=O` (configuration not stated), the percent span inhibition result is “inactive”.
With `Cc1ccc(C(=O)N(CCCN(C)C)c2nc3ccc(Cl)cc3s2)cc1C`, the percent span inhibition result is “inactive”.
On the same count and under the same terms, in the case of `CC(C)C(=O)NC(c1ccccc1)c1cc([N+](=O)[O-])c2cccnc2c1O` (configuration not stated) it was “inactive”.
On to `O=C(N/N=C/c1ccc(O)c(O)c1O)/C(=C/c1ccc([N+](=O)[O-])cc1)NC(=O)c1ccccc1`, for which the percent span inhibition entry was “inactive”.
For `CCOC(=O)C1(CC/C(C)=N\NC(N)=O)CC(C)(C)OC1=O` (configuration not stated), the percent span inhibition result was “inactive”.
On the same count and under the same terms, in the case of `Cc1cc2n(c1)CCn1c(C)ccc1-2` it was “inactive”; in that of `Oc1ccc(C=NCC2COc3ccccc3O2)cc1` (configuration not stated), “inactive”; in that of `O=C(CSc1nnc(-c2ccco2)n1Cc1ccccc1)c1ccccc1`, “inactive”.
As for `COc1ccc2oc(-c3ccccc3)c(C(=O)N3CCOCC3)c2c1`, the percent span inhibition result was “inactive”.
As to `CCC(=O)OCCNc1cc(Sc2nccn2C)c2nonc2c1[N+](=O)[O-]`, the percent span inhibition result was “inactive”.
As to `COc1cc(/C=C2\S/C(=N/S(=O)(=O)c3ccc(C)cc3)NC2=O)c([N+](=O)[O-])cc1OC`, the percent span inhibition entry is “inactive”.
On the same count and under the same terms, in the case of `CC(C)(C)C1CCC(=NNC(=O)c2cc3c(s2)CCCC3)CC1` (configuration not stated) it was “inactive”; in that of `CN(C)c1cccc(NC(=O)C2(C)CC2(Cl)Cl)c1` (configuration not stated), “inactive”.
The same measure, in the same setting: in the case of `CC(=O)c1ccc2c(c1)C1C=CCC1C(c1ccncc1)N2` (configuration not stated) it was “inactive”.
On to `Cc1ccc(/C=C2/NC(=O)N(Cc3ccccc3)C2=O)o1`, for which the percent span inhibition result is “inactive”.
Regarding `CCN(CC)c1ccc(-c2nn3c(-c4n[nH]c5c4CCC5)nnc3s2)cc1`, the percent span inhibition entry was “inactive”.
Turning to `Cc1ccc(C(=O)/C=C/c2ccc(-c3ccc(C)cc3)o2)cc1`, the percent span inhibition result was “inactive”.
For the molecule `COc1cccc(C(=O)/C=C/Nc2ccc(S(=O)(=O)Nc3onc(C)c3C)cc2)c1`, the percent span inhibition entry was “inactive”.
Turning to `Cc1ccccc1-c1nc(-c2ccc(NC(=O)c3ccc4c(c3)OCO4)cc2)no1`, the percent span inhibition entry is “inactive”.
Regarding `CCN1CCN(c2ccc(NC(=O)c3ccc4c(c3)[nH]c(=O)n4Cc3ccc(OC)cc3)cc2)CC1`, the percent span inhibition result is “inactive”.
For `COC(=O)C1C2c3ccccc3OC1(C)N=c1s/c(=C/c3cnn(C)c3C)c(=O)n12` (configuration not stated), the percent span inhibition entry is “inactive”.
Take `COc1ccc(NC(=O)/C(Cl)=C(/Cl)S(=O)Cc2ccccc2)cn1` (configuration not stated): the percent span inhibition result was “inactive”.
With `CCN(CC)CCN(C(=O)c1ccc(N2C(=O)CCC2=O)cc1)c1nc2cc3c(cc2s1)OCCO3`, the percent span inhibition entry is “inactive”.
The same measure, in the same setting: in the case of `Cc1ccc(-c2cc(-c3ccccc3)c(C#N)c(N)n2)o1` it was “inactive”; in that of `C1=CC2c3ccccc3NC(c3ccncc3)C2C1` (configuration not stated), “inactive”.
Turning to `O=C(NC1=NCCS1)NC12CC3CC(CC(C3)C1)C2`, the percent span inhibition result is “inactive”.
As to `CCOc1ccc(NCc2ccccc2OCc2cccc(F)c2)cc1`, the percent span inhibition entry is “inactive”.
On the same count and under the same terms, in the case of `COc1ccc2cc(CN(CCc3ccccc3)Cc3nnnn3CC3CCCO3)c(=O)[nH]c2c1` (configuration not stated) it was “inactive”.
`CC1N(C)c2cccc3cccc(c23)N1C`: the percent span inhibition entry is “inactive”.
As for `CCOc1ccc(C2=Nn3c(nnc3-c3ccco3)SC2)cc1`, the percent span inhibition result was “inactive”.
For `CN(C)/C=C/C(=O)c1ccc(C(F)(F)F)cc1F`, the percent span inhibition result is “inactive”.
Regarding `COc1cccc(-n2nnnc2SCC(=O)Nc2cccc(NC(C)=O)c2)c1`, the percent span inhibition result was “inactive”.
The same measure, in the same setting: in the case of `c1ccc(C2=Nc3cccc4cccc(c34)N2)cc1` it was “inactive”; in that of `COc1ccc(-c2csc(NC(=O)/C(N=Nc3ccccc3)=C(\C)O)n2)cc1`, “inactive”.
Turning to `CCc1cccc(CC)c1-n1c(-c2cccnc2)n[nH]c1=S`, the percent span inhibition entry was “inactive”.
Consider `Cc1cc(-c2nnc(CCC(=O)NC(C)c3cccc4ccccc34)o2)no1` (configuration not stated), for which the percent span inhibition result is “inactive”.
For `O=C(CSc1ccc(-c2ccccc2)nn1)NCc1ccco1`, the percent span inhibition entry is “inactive”.
Still for that read-out and setting: in the case of `N#Cc1cccc(N=c2ssnc2Cl)c1` it was “inactive”.
In the case of `CNC(=O)c1c(N)sc2c1CCCCC2`, the percent span inhibition result is “inactive”.
Consider `CNc1ccc(Br)cc(C(=O)/C=C/c2cccc(OC)c2)c1=O`, for which the percent span inhibition result was “inactive”.
For the molecule `c1coc(C2=Nc3cccc4cccc(c34)N2)c1`, the percent span inhibition result was “inactive”.
As to `O=C(Nc1ccc2nc(-c3ccco3)c(-c3ccco3)nc2c1)N1CCN(c2ccccn2)CC1`, the percent span inhibition result is “inactive”.
Regarding `Nc1ccc(C2=Nc3cccc4cccc(c34)N2)cc1`, the percent span inhibition result is “inactive”.
Still for that read-out and setting: in the case of `CCc1ccc(NC(=O)Cc2ccc(OC)cc2)cc1` it was “inactive”.
